{
  "source": "patent US9695155B2",
  "about": "“Herbicidal substituted pyrimidinyloxy benzene compounds” (E. I. DU PONT DE NEMOURS AND COMPANY, priority 2013, dated 2017)",
  "key": {"[1]": {"tested_on": "velvetleaf", "assay": "Test C postemergence", "format": "in vivo, Abutilon theophrasti", "settings": "for Plant response rating (0 to 100), Velvetleaf: postemergence; for Plant response rating, Velvetleaf: Postemergence, scale 0 to 100 (0 no effect, 100 complete control)", "procedure,_shortened": "(§1)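 Injury was assessed visually against controls 13 to 15 days after application, with 0 meaning no effect and 100 full control; missing entries are shown as a dash. Preemergence sprays hit seeded loam–sand soil, postemergence sprays hit 1- to 4-leaf plants.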"}, "[2]": {"tested_on": "pigweed", "assay": "Test C preemergence", "format": "in vivo, Amaranthus retroflexus", "settings": "for Pigweed plant response rating: preemergence, scale 0 (no effect) to 100 (complete control)", "procedure,_shortened": "as §1"}, "[3]": {"tested_on": "corn", "assay": "Test A postemergence", "format": "in vivo, Zea mays", "procedure,_shortened": "(§2)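 Compounds in non-phytotoxic solvent with surfactant applied as soil spray preemergence, or postemergence to plants 2-10 cm at one- to two-leaf stage, in loam/sand. After approximately 10 days in greenhouse, injury rated visually versus untreated controls, 0 (no effect) to 100 (complete control).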"}, "[4]": {"tested_on": "Italian ryegrass", "assay": "Test C postemergence", "format": "in vivo, Lolium multiflorum", "settings": "for Plant response rating (0 to 100), Ryegrass, Italian: postemergence; for Plant response rating, Ryegrass, Italian: Postemergence, scale 0 to 100 (0 no effect, 100 complete control)", "procedure,_shortened": "as §1"}, "[5]": {"tested_on": "yellow nutsedge", "assay": "Test C preemergence", "format": "in vivo, Cyperus esculentus", "settings": "for Nutsedge, Yellow plant response rating: preemergence, scale 0 (no effect) to 100 (complete control)", "procedure,_shortened": "as §1"}, "[6]": {"tested_on": "kochia", "assay": "Test C postemergence", "format": "in vivo, Kochia scoparia", "settings": "for Plant response rating (0 to 100), Kochia: postemergence; for Plant response rating, Kochia: Postemergence, scale 0 to 100 (0 no effect, 100 complete control)", "procedure,_shortened": "as §1"}, "[7]": {"tested_on": "chickweed", "assay": "Test C postemergence", "format": "in vivo, Stellaria media", "settings": "for Plant response rating (0 to 100), Chickweed: postemergence; for Plant response rating, Chickweed: Postemergence, scale 0 to 100 (0 no effect, 100 complete control)", "procedure,_shortened": "as §1"}, "[8]": {"tested_on": "morningglory", "assay": "Test A postemergence", "format": "in vivo, Ipomoea spp.", "settings": "0 to 100 scale where 0 is no effect and 100 is complete control", "procedure,_shortened": "as §2"}, "[9]": {"tested_on": "large (Lg) crabgrass", "assay": "Test C preemergence", "format": "in vivo, Digitaria sanguinalis", "settings": "for Crabgrass, Large plant response rating: preemergence, scale 0 (no effect) to 100 (complete control)", "procedure,_shortened": "as §1"}, "[10]": {"tested_on": "waterhemp", "assay": "Test C preemergence", "format": "in vivo, Amaranthus rudis", "settings": "for Waterhemp plant response rating: preemergence, scale 0 (no effect) to 100 (complete control)", "procedure,_shortened": "as §1"}, "[11]": {"tested_on": "pigweed", "assay": "Test C postemergence", "format": "in vivo, Amaranthus retroflexus", "settings": "for Plant response rating (0 to 100), Pigweed: postemergence; for Plant response rating, Pigweed: Postemergence, scale 0 to 100 (0 no effect, 100 complete control)", "procedure,_shortened": "as §1"}, "[12]": {"tested_on": "large (Lg) crabgrass", "assay": "Test A postemergence", "format": "in vivo, Digitaria sanguinalis", "procedure,_shortened": "as §2"}, "[13]": {"tested_on": "giant foxtail", "assay": "Test A postemergence", "format": "in vivo, Setaria faberii", "settings": "0 to 100 scale where 0 is no effect and 100 is complete control", "procedure,_shortened": "as §2"}, "[14]": {"settings": "Preemergence, 31 g ai/ha, scale 0 to 100, 0 no effect, 100 complete control"}, "[15]": {"settings": "125 g ai/ha, 0 to 100 scale where 0 is no effect and 100 is complete control"}, "[16]": {"settings": "500 g ai/ha, 0 to 100 scale, 0 no effect, 100 complete control"}},
  "data": [
    {"compound": "N#Cc1cccc(Oc2ncc(Cl)cn2)c1-n1cc(Cl)cn1", "note": "[Compound 72]", "values": [
      {"measurement": "Plant response rating (0 to 100), Velvetleaf", "setting": "[1]; 125 g ai/ha", "result": 55},
      {"measurement": "Plant response rating (0 to 100), Velvetleaf", "setting": "[1]; 250 g ai/ha", "result": 75},
      {"measurement": "Plant response rating, Velvetleaf", "setting": "[1]; 31 g ai/ha, 13 to 15 days", "result": 40},
      {"measurement": "Plant response rating, Velvetleaf", "setting": "[1]; 62 g ai/ha", "result": 40},
      {"measurement": "Pigweed plant response rating", "setting": "[2]; 62 g ai/ha", "result": 100},
      {"measurement": "Pigweed plant response rating", "setting": "[2]; 125 g ai/ha", "result": 100},
      {"measurement": "Pigweed plant response rating", "setting": "[2]; 250 g ai/ha", "result": 100},
      {"measurement": "Plant response rating, Pigweed", "setting": "[2]; [14]", "result": 100},
      {"measurement": "Plant response rating, Corn", "setting": "[3]; [15]", "result": 50},
      {"measurement": "Plant response rating, Corn", "setting": "[3]; [16]", "result": 60},
      {"measurement": "Plant response rating (0 to 100), Ryegrass, Italian", "setting": "[4]; 125 g ai/ha", "result": 10},
      {"measurement": "Plant response rating (0 to 100), Ryegrass, Italian", "setting": "[4]; 250 g ai/ha", "result": 10},
      {"measurement": "Plant response rating, Ryegrass, Italian", "setting": "[4]; 31 g ai/ha, 13 to 15 days", "result": 5},
      {"measurement": "Plant response rating, Ryegrass, Italian", "setting": "[4]; 62 g ai/ha", "result": 5},
      {"measurement": "Nutsedge, Yellow plant response rating", "setting": "[5]; 62 g ai/ha", "result": 0},
      {"measurement": "Nutsedge, Yellow plant response rating", "setting": "[5]; 125 g ai/ha", "result": 10},
      {"measurement": "Nutsedge, Yellow plant response rating", "setting": "[5]; 250 g ai/ha", "result": 80},
      {"measurement": "Plant response rating, Nutsedge, Yellow", "setting": "[5]; [14]", "result": 0},
      {"measurement": "Plant response rating (0 to 100), Kochia", "setting": "[6]; 125 g ai/ha", "result": 95},
      {"measurement": "Plant response rating (0 to 100), Kochia", "setting": "[6]; 250 g ai/ha", "result": 95},
      {"measurement": "Plant response rating, Kochia", "setting": "[6]; 31 g ai/ha, 13 to 15 days", "result": 90},
      {"measurement": "Plant response rating, Kochia", "setting": "[6]; 62 g ai/ha", "result": 90},
      {"measurement": "Plant response rating (0 to 100), Chickweed", "setting": "[7]; 125 g ai/ha", "result": 80},
      {"measurement": "Plant response rating (0 to 100), Chickweed", "setting": "[7]; 250 g ai/ha", "result": 80},
      {"measurement": "Plant response rating, Chickweed", "setting": "[7]; 31 g ai/ha, 13 to 15 days", "result": 50},
      {"measurement": "Plant response rating, Chickweed", "setting": "[7]; 62 g ai/ha", "result": 65},
      {"measurement": "Plant response rating, Morningglory", "setting": "[8]; 125 g ai/ha", "result": 90},
      {"measurement": "Plant response rating, Morningglory", "setting": "[8]; 500 g ai/ha", "result": 100},
      {"measurement": "Crabgrass, Large plant response rating", "setting": "[9]; 62 g ai/ha", "result": 100},
      {"measurement": "Crabgrass, Large plant response rating", "setting": "[9]; 125 g ai/ha", "result": 100},
      {"measurement": "Crabgrass, Large plant response rating", "setting": "[9]; 250 g ai/ha", "result": 100},
      {"measurement": "Plant response rating, Crabgrass, Large", "setting": "[9]; [14]", "result": 100},
      {"measurement": "Waterhemp plant response rating", "setting": "[10]; 62 g ai/ha", "result": 100},
      {"measurement": "Waterhemp plant response rating", "setting": "[10]; 125 g ai/ha", "result": 100},
      {"measurement": "Waterhemp plant response rating", "setting": "[10]; 250 g ai/ha", "result": 100},
      {"measurement": "Plant response rating, Waterhemp", "setting": "[10]; [14]", "result": 100},
      {"measurement": "Plant response rating (0 to 100), Pigweed", "setting": "[11]; 125 g ai/ha", "result": 85},
      {"measurement": "Plant response rating (0 to 100), Pigweed", "setting": "[11]; 250 g ai/ha", "result": 95},
      {"measurement": "Plant response rating, Pigweed", "setting": "[11]; 31 g ai/ha, 13 to 15 days", "result": 70},
      {"measurement": "Plant response rating, Pigweed", "setting": "[11]; 62 g ai/ha", "result": 80},
      {"measurement": "Plant response rating, Crabgrass, Large", "setting": "[12]; [15]", "result": 100},
      {"measurement": "Plant response rating, Crabgrass, Large", "setting": "[12]; [16]", "result": 100},
      {"measurement": "Plant response rating, Foxtail, Giant", "setting": "[13]; 125 g ai/ha", "result": 90},
      {"measurement": "Plant response rating, Foxtail, Giant", "setting": "[13]; 500 g ai/ha", "result": 100}
    ]}
  ]
}
